Laboratory results as given in patent US8618077B2, “Compositions and methods for treating fragile X premutation RVGG repeats-mediated toxicity” (Emory University, priority 2011, dated 2013).

How the values were obtained:
[1] = system: flies expressing fragile X premutation rCGG repeats (elav-GAL4/+; UAS-CGG90-EGFP/+); experiment: Chemical screen / viability assay: rescue of lethality caused by neuronal expression of fragile X premutation rCGG90 repeats; assay type: in vivo, Drosophila; details: for recovery of dFmr1 CGG90 mutant flies: 40 microM of compound in the food, 0% on food alone
Excerpt: In particular, embodiments of the present disclosure include methods of screening compounds using a drosophila (fruit fly) based compound screen to identify drug candidates for the treatment of the fragile X-associated tremor/ataxia syndrome or other neurodegenerative disorders. […] A fly line of UAS-CGG90-EGFP transgene balanced with Cyo balancer carrying hs-hid transgene was generated. Upon heat shock, the expression of hid was activated, which led to cell death and lethality in the CGG90 dFmr1 premutation fly embryos.
The mutant embryos were placed into an appropriate container (e.g., a 96-well container) containing a food with or without a compound from a library of drugs candidates. 5 μM and 40 μM of individual compounds from a library of 2,000 FDA approved drugs and natural products (The Spectrum Collection™) were screened. Vials were then kept at 25° C. for 10 to 15 days to score for viability. The efficacy of the drug candidate was determined by scoring the number of pupae formation or the emergence of adult flies after a certain time frame. Embodiments of the present disclosure provide a screen for compounds that directly and indirectly regulate dFmr1 rCGG repeat mediated toxicity and rescue mutant flies from heat shock induced lethality. Additional details regarding the active compositions and disorders are described in the Examples below.
A Drosophila disease model of FXTAS and provided experimental evidence that fragile X premutation rCGG repeats alone are sufficient to cause neurodegeneration in a repeat-dosage manner. See Jin et al., Neuron, 2003, 39:739-747. […] Lethality occurs primarily during embryonic development before larval formation. Taking advantage of this lethality, a high-throughput strategy was designed to screen chemical libraries for small molecules relevant to FXTAS. the UAS-CGG90-EGFP transgene was balanced with a chromosome carrying a curly wing (Cyo) marker recombined with a heat shock-inducible apoptotic hid (hs-hid) transgene (w1118, UAS-CGG90-EGFP/TM2 Cyo:hs-hid). Next, the viability of adult progeny was tested using the Drosophila GAL4/UAS system. crosses of UAS-CGG90-EGFP/TM2 Cyo:hs-hid were performed with homozygous pan-neuronal elav-Gal4 driver. There was an absence of heterozygous non-Cyo adult progeny (elav-GAL4/+; UAS-CGG90-EGFP/+), which confirmed that rCGG90 repeat expression in neurons leads to lethality. The only living progenies would carry elav-GAL4/+; +/TM2 Cyo:hs-hid. Furthermore, upon heat shock, the progenies carrying elav-GAL4/+; +/TM2 Cyo:hs-hid also died, because the expression of hid leads to cell death and lethality at embryonic stages that are otherwise viable.
Since the rescue of the lethality was an easily scored phenotype, one is able to use this assay to conduct a chemical screen to identify the small molecules that can improve/restore the viability of the flies expressing fragile X premutation rCGG repeats. As depicted in schematic representation (FIG. 1A), crosses between elav-GAL4 and UAS-CGG90-EGFP/TM2 Cyo:hs-hid were raised as well as control flies into food supplemented with 40 μm of individual unique compounds from a library of 2000 US Food and Drug Administration (FDA)-approved drugs and natural products (The Spectrum Collection, MicroSource Discovery Systems, Inc.). […]

[2] = system: dFmr1 CGG90 mutant flies; experiment: Locomotion assay (Drosophila Activity Monitor) in flies expressing rCGG90 repeats (UAS-CGG90-EGFP/nervana-GAL4); assay type: in vivo; details: for percentage of normal locomotion activity in dFmr1 CGG90 mutant flies: compound-treated flies, 50% without treatment; for effect on locomotion deficits caused by fragile X premutation rCGG repeats (in words): flies fed food containing the compound, mean locomotor activity over 7 days
Description: FIG. 2A illustrates the identification of small molecules that can ameliorate the locomotion deficits caused by fragile X premutation rCGG repeats. Nervana-GAL4 driver and UAS-CGG90-EGFP/Cyo were crossed to produce progeny embryos on food supplemented with or without selected compounds as indicated. Adult progeny of genotype UAS-CGG90-EGFP/nervana were selected and 32 female virgins 48 h old were subsequently monitored for locomotor activity continuously for several weeks. The locomotion of 32 flies that were fed with fly food containing the compound each time were simultaneously monitored.
To further validate these compounds, a secondary behavioral assay was developed. In this assay, UAS-CGG90-EGFP transgenic flies were crossed with nervana-GAL4, which could drive the expression of fragile X rCGG repeats in CNS, albeit weakly, allowing us to analyze adult flies for locomotion deficits. The expression of rCGG repeats leads to locomotion defects (FIG. 2A). […] The progeny flies (UAS-CGG90-EGFP/nervana-GAL4) were collected to monitor locomotion. To continuously monitor the locomotion for a given fly, a Drosophila Activity Monitor (DAM) system was established for this purpose. See Pfeiffenberger et al., Locomotor activity level monitoring using the Drosophila Activity Monitoring (DAM) System. Cold Spring Harb. Protoc. 2010.
For each individual compound, the locomotion of 32 flies were simultaneously monitored that were fed with fly food containing the compound each time. The data were collected and analyzed for locomotor activity (FIG. 2B). Each drug treatment was repeated at least three times.

[3] = system: release of arachidonic acid; details: cited from earlier work

SMILES | recovery of dFmr1 CGG90 mutant flies [1] | percentage of normal locomotion activity in dFmr1 CGG90 mutant flies [2] | effect on locomotion deficits caused by fragile X premutation rCGG repeats (in words) [2] | suppression of lethality caused by fragile X premutation rCGG repeats (in words) ([1]; 40 μm compound in food, heat shock at day 2, scored after 10-15 days) | effect on locomotion deficits caused by fragile X premutation rCGG repeats (in words) ([2]; listed as Fluocinolone acetonide) | effect on locomotion deficits caused by fragile X premutation rCGG repeats (in words) ([2]; listed as fluocinolone acetonide) | release of arachidonic acid [3] | effect on locomotion deficits caused by fragile X premutation rCGG repeats (in words) ([2]; listed as xylazine)
COc1ccc(C(=O)/C=C/c2ccccc2)cc1 [4′-methoxy chalcone] | 3% | 75% | significant suppression of the locomotion activity deficit | – | – | – | – | –
C[C@@H]1C[C@H]2[C@@H]3CCC4=CC(=O)C=C[C@]4(C)[C@@]3(F)[C@@H](O)C[C@]2(C)[C@@]1(O)C(=O)CO [dexamethasone] | 5% | 90% | – | – | – | – | – | –
CC1(C)O[C@@H]2C[C@H]3[C@@H]4C[C@H](F)C5=CC(=O)C=C[C@]5(C)[C@@]4(F)[C@@H](O)C[C@]3(C)[C@]2(C(=O)CO)O1 [fluocilone acetonide] | 7.5% | 99% | significant suppression of the locomotion activity deficit | suppress both lethality and locomotion deficits | significantly ameliorate the locomotion defects | suppress both lethality and locomotion deficits | – | –
CCN(CC)CCCC(C)Nc1c2ccc(Cl)cc2nc2ccc(OC)cc12 (stereo not shown) [quinacrine] | – | – | – | – | – | – | blocked | –
Cc1cccc(C)c1N=C1NCCCS1 [xylaxine] | 5% | 80% | significant suppression of the locomotion activity deficit | – | – | – | – | significantly ameliorate the locomotion defects
